Reference: US8383094B2, “Hepatitis C virus inhibitors” (Bristol-Myers Squibb Company, priority 2008, dated 2013)
Where two headings read alike, the source gives them in different places.

Tested on: HCV 1b genotype
Test: HCV Replicon assay (HCV-neo replicon cells, wild-type)
Assay type: cell-based
Conditions: HCV 1b genotype replicon, read-out: 1b EC50 (in μM or range)
Experimental: An HCV Replicon assay was utilized in the present disclosure, and was prepared, conducted and validated as described in commonly owned PCT/US2006/022197 and in O′Boyle et. al. Antimicrob Agents Chemother, 2005 April; 49(4):1346-53. Assay methods incorporating luciferase reporters have also been used as described (Apath.com).
HCV-neo replicon cells and replicon cells containing mutations in the NS5A region were used to test the currently described family of compounds. The compounds were determined to have more than 10-fold less inhibitory activity on cells containing mutations than wild-type cells. Thus, the compounds of the present disclosure can be effective in inhibiting the function of the HCV NS5A protein and are understood to be as effective in combinations as previously described in application PCT/US2006/022197 and commonly owned WO/04014852. Further, the compounds of the present disclosure can be effective against the HCV 1b genotype. It should also be understood that the compounds of the present disclosure can inhibit multiple genotypes of HCV. […] In one embodiment, compounds of the present disclosure are inhibitory versus 1a, 1b, 2a, 2b, 3a, 4a, and 5a genotypes.

[1] = Hepatitis C virus, range class A-D

Row | Structure (SMILES) | EC50 [1] | other results
1 | O=C(Nc1ccc(C#Cc2ccc(NC(=O)[C@@H]3CCCN3C(=O)[C@H]3CCCO3)cc2)cc1)[C@H]1CCCO1 [Example D25, 1-((2R)-Tetrahydro-2-furanylcarbonyl)-N-(4-((4-(((2R)-tetrahydro-2-furanylcarbonyl)amino)phenyl)ethynyl)phenyl)-L-prolinamide] | 1000 to 10000 nM | –
2 | C=Cc1cccnc1C(=O)N1CCC[C@H]1C(=O)Nc1ccc(C#Cc2ccc(NC(=O)[C@@H]3CCCN3C(=O)c3ncccc3C=C)cc2)cc1 [Example D36.3, (2S,2′S)-N,N′-(4,4′-(ethyne-1,2-diyl)bis(4,1-phenylene))bis(1-(3-vinylpicolinoyl)pyrrolidine-2-carboxamide)] | – | EC50 (range class A-D): 100 to 999 nM
3 | C[C@@H](C(=O)N1CCC[C@H]1C(=O)Nc1ccc(C#Cc2ccc(NC(=O)[C@@H]3CCCN3C(=O)[C@H](C)c3ccccc3)cn2)nc1)c1ccccc1 [Example D54, (2S,2′S)-N,N′-(1,2-ethynediyldi-2,5-pyridinediyl)bis(1-((2R)-2-phenylpropanoyl)-2-pyrrolidinecarboxamide)] | < 4.57 nM | –
4 | O=C(Nc1ccc(C#Cc2ccc(NC(=O)[C@@H]3CCCN3C(=O)C3(c4ccccc4)CC3)cc2)cc1)[C@@H]1CCCN1C(=O)C1(c2ccccc2)CC1 [VN4, (2S,2′S)-N,N′-(1,2-ethynediyldi-4,1-phenylene)bis(1-((1-phenylcyclopropyl)carbonyl)-2-pyrrolidinecarboxamide)] | < 4.57 nM | –
5 | O=C(Nc1cccc(C#Cc2cccc(NC(=O)[C@@H]3CCCN3C(=O)OCc3ccccc3)n2)n1)[C@@H]1CCCN1C(=O)OCc1ccccc1 [YQ1, dibenzyl (2S,2′S)-2,2′-(1,2-ethynediylbis(6,2-pyridinediylcarbamoyl))di(1-pyrrolidinecarboxylate)] | – | EC50 (Hepatitis C virus): 7 nM
6 | COC(=O)N[C@@H](C(=O)N1CCC[C@H]1C(=O)Nc1ccc(C#Cc2ccc(NC(=O)[C@@H]3CCCN3C(=O)[C@H](NC(=O)OC)c3ccccc3)cc2)cc1)c1ccccc1 [VN55, Dimethyl (1,2-ethynediylbis(4,1-phenylenecarbamoyl(2S)-2,1-pyrrolidinediyl((1R)-2-oxo-1-phenyl-2,1-ethanediyl)))biscarbamate] | – | EC50: 0.013 nM
7 | CC(=O)N(C)C(C(=O)N1CCC[C@H]1C(=O)Nc1ccc(C#Cc2ccc(NC(=O)[C@@H]3CCCN3C(=O)C(c3ccccc3)N(C)C(C)=O)cc2)cc1)c1ccccc1 (stereo partly drawn) [VN46, (2S,2′S)-N,N′-(1,2-ethynediyldi-4,1-phenylene)bis(1-((acetyl(methyl)amino)(phenyl)acetyl)-2-pyrrolidinecarboxamide)] | 100 to 999 nM | –
8 | CC(C)(C)OC(=O)Nc1ccc(C#Cc2ccc(NC(=O)[C@@H]3CCCN3C(=O)[C@H](O)c3ccccc3)cc2)cc1 [Example D60.1, tert-Butyl 4-((4-((S)-1-((R)-2-hydroxy-2-phenylacetyl)pyrrolidine-2-carboxamido)phenyl)ethynyl)phenylcarbamate] | 100 to 999 nM | –
9 | COc1cccc2c(C(=O)N3CCC[C@H]3C(=O)Nc3ccc(C#Cc4ccc(NC(=O)[C@@H]5CCCN5C(=O)c5nc(Cl)cc6c(OC)cccc56)cc4)cc3)nc(Cl)cc12 [Example D33, (2S,2′S)-N,N′-(1,2-ethynediyldi-4,1-phenylene)bis(1-((3-chloro-5-methoxy-1-isoquinolinyl)carbonyl)-2-pyrrolidinecarboxamide)] | 4.57 to 99 nM | –
10 | O=C(Nc1ccc(C#Cc2ccc(NC(=O)[C@@H]3CCCCN3C(=O)OCc3ccccc3)cc2)cc1)[C@@H]1CCCCN1C(=O)OCc1ccccc1 [Example D12, Dibenzyl (2S,2′S)-2,2′-(1,2-ethynediylbis(4,1-phenylenecarbamoyl))di(1-piperidinecarboxylate)] | 100 to 999 nM | –
11 | CC(=O)N[C@@H](C(=O)N1CCC[C@H]1C(=O)Nc1ccc(C#Cc2ccc(NC(=O)[C@@H]3CCCN3C(=O)[C@H](NC(C)=O)c3ccccc3)cc2)cc1)c1ccccc1 [VN26, (2S,2′S)-N,N′-(1,2-ethynediyldi-4,1-phenylene)bis(1-((2R)-2-acetamido-2-phenylacetyl)-2-pyrrolidinecarboxamide)] | < 4.57 nM | –
12 | O=C1CN(C(C(=O)N2CCC[C@H]2C(=O)Nc2ccc(C#Cc3ccc(NC(=O)[C@@H]4CCCN4C(=O)C(c4ccccc4)N4CCNC(=O)C4)cc3)cc2)c2ccccc2)CCN1 (single isomer, unassigned) [VN33] | – | EC50 (range class A-D): < 4.57 nM
13 | O=C(Nc1ccc(C#Cc2ccc(NC(=O)[C@@H]3CCCN3C(=O)[C@H](O)c3ccccc3)cc2)cc1)[C@@H]1CCCN1C(=O)[C@H](O)c1ccccc1 [Example D43, (2S,2′S)-N,N′-(1,2-ethynediyldi-4,1-phenylene)bis(1-((2R)-2-hydroxy-2-phenylacetyl)-2-pyrrolidinecarboxamide)] | < 4.57 nM | –
14 | CC(=O)O[C@@H]1C[C@@H](C(=O)Nc2ccc(C#Cc3ccc(NC(=O)[C@@H]4CCCN4C(C)=O)cc3)cc2)N(C(=O)Cc2ccccc2)C1 [Example D27, (3R,5S)-5-((4-((4-((((2S)-1-Acetyl-2-pyrrolidinyl)carbonyl)amino)phenyl)ethynyl)phenyl)carbamoyl)-1-(phenylacetyl)-3-pyrrolidinyl acetate] | 4.57 to 99 nM | –
15 | O=C(Nc1ccc(C#Cc2ccc(NC(=O)[C@@H]3CCCN3C(=O)C(c3ccccc3)N3CC[C@@H](O)C3)cc2)cc1)[C@@H]1CCCN1C(=O)C(c1ccccc1)N1CC[C@@H](O)C1 (stereo partly drawn) [VN53, (2S,2′S)-N,N′-(1,2-ethynediyldi-4,1-phenylene)bis(1-(((3R)-3-hydroxy-1-pyrrolidinyl)(phenyl)acetyl)-2-pyrrolidinecarboxamide)] | – | EC50 (range class A-D): 4.57 to 99 nM
16 | COc1cccc2c(C(=O)N3CCC[C@H]3C(=O)Nc3ccc(C#Cc4ccc(NC(=O)[C@@H]5CCCN5C(=O)CC5CC5)cc4)cc3)nc(Cl)cc12 [Example D47, (2S)-1-((3-Chloro-5-methoxy-1-isoquinolinyl)carbonyl)-N-(4-((4-((((2S)-1-(cyclopropylacetyl)-2-pyrrolidinyl)carbonyl)amino)phenyl)ethynyl)phenyl)-2-pyrrolidinecarboxamide] | 4.57 to 99 nM | –
17 | CC(=O)N(C)C(C(=O)N1CCC[C@H]1C(=O)Nc1ccc(C#Cc2ccc(NC(=O)[C@@H]3CCCN3C(=O)C(c3ccccc3)N(C)C(C)=O)cc2)cc1)c1ccccc1 (single isomer, unassigned) [VN35] | 100 to 999 nM | –
18 | O=C(CC1CC1)Nc1ccc(C#Cc2ccc(NC(=O)[C@@H]3CCCN3C(=O)Cc3ccccc3)cc2)cc1 [Example D16, N-(4-((4-((cyclopropylacetyl)amino)phenyl)ethynyl)phenyl)-1-(phenylacetyl)-L-prolinamide] | 100 to 999 nM | –
19 | CC(=O)N1CCC[C@H]1C(=O)Nc1ccc(C#Cc2ccc(NC(=O)C3CC(=O)N(CCc4cccs4)C3)cc2)cc1 (stereo partly drawn) [Example D9, 1-Acetyl-N-(4-((4-(((5-oxo-1-(2-(2-thienyl)ethyl)-3-pyrrolidinyl)carbonyl)amino)phenyl)ethynyl)phenyl)-L-prolinamide] | – | EC50 (Hepatitis C virus): 2420 nM
20 | O=C(Nc1ccc(C#Cc2ccc(NC(=O)[C@@H]3CCCN3C(=O)C(c3ccccc3)N3CCC(O)CC3)cc2)cc1)[C@@H]1CCCN1C(=O)C(c1ccccc1)N1CCC(O)CC1 (stereo partly drawn) [VN20, (2S,2′S)-N,N′-(1,2-ethynediyldi-4,1-phenylene)bis(1-((4-hydroxy-1-piperidinyl)(phenyl)acetyl)-2-pyrrolidinecarboxamide)] | 4.57 to 99 nM | –
21 | CN1C[C@@H]2C[C@H]1CN2C(C(=O)N1CCC[C@H]1C(=O)Nc1ccc(C#Cc2ccc(NC(=O)[C@@H]3CCCN3C(=O)C(c3ccccc3)N3C[C@@H]4C[C@H]3CN4C)cc2)cc1)c1ccccc1 (stereo partly drawn) [VN19, (2S,2′S)-N,N′-(1,2-ethynediyldi-4,1-phenylene)bis(1-(((1S,4S)-5-methyl-2,5-diazabicyclo[2.2.1]hept-2-yl)(phenyl)acetyl)-2-pyrrolidinecarboxamide)] | – | EC50: 5.2 nM
22 | O=C(Nc1ccc(C#Cc2ccc(NC(=O)[C@@H]3CCCN3C(=O)[C@@H](O)c3ccccc3)cc2)cc1)[C@@H]1CCCN1C(=O)[C@@H](O)c1ccccc1 [Example D41, (2S,2′S)-N,N′-(1,2-ethynediyldi-4,1-phenylene)bis(1-((2S)-2-hydroxy-2-phenylacetyl)-2-pyrrolidinecarboxamide)] | < 4.57 nM | –
23 | O=C(Nc1ccc(C#Cc2ccc(NC(=O)[C@@H]3CCCN3C(=O)OCc3ccccc3)cc2)cc1)C1CC1 [Example D18, Benzyl (2S)-2-((4-((4-((cyclopropylcarbonyl)amino)phenyl)ethynyl)phenyl)carbamoyl)-1-pyrrolidinecarboxylate] | 100 to 999 nM | –
24 | CC(=O)N1CCC[C@H]1C(=O)Nc1ccc(C#Cc2ccc(NC(=O)[C@@H]3CCCN3C(=O)Cc3cccnc3)nc2)cc1 [Example D57, (2S)-1-Acetyl-N-(4-((6-((((2S)-1-(3-pyridinylacetyl)-2-pyrrolidinyl)carbonyl)amino)-3-pyridinyl)ethynyl)phenyl)-2-pyrrolidinecarboxamide] | 1000 to 10000 nM | –
25 | CCCOC(=O)N[C@@H](C(=O)N1CCC[C@H]1C(=O)Nc1ccc(C#Cc2ccc(NC(=O)[C@@H]3CCCN3C(=O)[C@H](NC(=O)OCCC)c3ccccc3)cc2)cc1)c1ccccc1 [VN56, Dipropyl (1,2-ethynediylbis(4,1-phenylenecarbamoyl(2S)-2,1-pyrrolidinediyl((1R)-2-oxo-1-phenyl-2,1-ethanediyl)))biscarbamate] | – | EC50 (range class A-D): < 4.57 nM
26 | CN1Cc2ccccc2C1C(=O)N1CCC[C@H]1C(=O)Nc1ccc(C#Cc2ccc(NC(=O)[C@@H]3CCCN3C(=O)C3c4ccccc4CN3C)cc2)cc1 (stereo partly drawn) [VN39, (2S,2′S)-N,N′-(1,2-ethynediyldi-4,1-phenylene)bis(1-((2-methyl-2,3-dihydro-1H-isoindol-1-yl)carbonyl)-2-pyrrolidinecarboxamide)] | – | EC50 (range class A-D): 100 to 999 nM
